Laboratory results from patent publication US4849410A, “Pseudopterosin and synthetic derivatives thereof” (The Regents of the University of California, priority 1987, dated 1989).

Legend:
B16 melanoma = experiment: Activity in mice bearing ip B16 melanoma; assay type: in vivo, female B6D2F1 mice
Experimental: Compound I was also evaluated for activity against solid tumors as follows:
One-half ml of a 10 percent (v:v) brei of tumor cells prepared from solid B16 melanoma or M5076 reticulum cell sarcoma was implanted ip in female B6D2F1 mice which were randomized to treatment groups of 8 animals each. Treatment was initiated 24 hours after tumer inoculation and was continued daily for 10 days (cisplatin was administered q4Dx4 on Days 1, 5, 9 and 13). Mice were monitored daily for 60 days, and the median day of death was determined compared to three groups of untreated controls to provide percent increase in lifespan (ILS). ILS values of greater than or equal to 50 percent represent biologically significant antitumor effects. Cisplatin was curative in M5076 with 6/8 tumor-free survivors on Day 60 at the top dose level.

[1] = test system: Arachidonic Acid (A.A.) Induced Topical Inflammation of the Mouse Ear; experiment: Arachidonic acid induced topical inflammation of the mouse ear; assay type: in vivo; conditions: A.A. 25.0 ug; 50.0 ug/ear
[2] = test system: highly metastatic subline (F10) of B16 melanoma; experiment: Antiproliferative effects on tumor cells growing in tissue culture; assay type: cell-based; conditions: continuous exposure; read-out: concentration that inhibited proliferation by 50 percent
Experimental: Compound I was also tested for antiproliferative effects on tumor cells growing in tissue culture.

[3] = test system: PMA induced swelling of the mouse ear; experiment: Anti-Inflammatory Assay (topical administration); assay type: in vivo, mice
Experimental: Anti-Inflammatory (topical administration)
2 ug PMA was applied in 25 ul of acetone of the inner surface of the left ear, the right ear is treated with solvent only. […] 200 minutes after PMA treatment, the mice were killed by cervical dislocation and both ears were cut off, punched with a #4 cork borer and weighed. The swelling induced by PMA was calculated as the mean increase in the weight of the left ear minus the right ear. The pecent inhibition of edema was calculated as control-drug/control×100. […] ED50 values were estimated by the method of Litchfield and Wilcoxon.

[4] = test system: PMA induced swelling of the mouse ear; experiment: Anti-Inflammatory Assay (systemic administration); assay type: in vivo, male Swiss Webster mice
Experimental: Anti-Inflammatory Assay (systemic administration)
2 ug PMA was applied in 25 ul of acetone to the inner surface of the left ear of male Swiss Webster mice (4 to 6 weeks old), the right ear is treated with acetone only. […] 200 minutes after PMA treatment, the mice were killed by cervical dislocation and both ears were cut off, punched with a #4 cork borer and weighed. The swelling induced by PMA was calculated as the increase in the weight of the left ear minus the right ear. The percent inhibition of edema was calculated as control-drug/control×100. […] ED50 values were estimated by the method of Litchfield and Wilcoxon.

[5] = test system: Phorbol Myristate Acetate (PMA) Induced Topical Inflammation of the Mouse Ear; experiment: Mouse Ear Anti-Inflammatory Assay (PMA, topical); assay type: in vivo; conditions: for Ear Weight Mean ± S.E.M.: PMA 1.5 ug
Experimental: a. Mouse Ear Anti-Inflammatory Assay
Test compound and phorbol myristate acetate (PMA) are topically applied simultaneously to the pinnae of the ears of mice. Three hours twenty minutes after application, mice are sacrificed, ears removed and standard sized bores taken. Edema (inflammation) is measured as the difference in weight between control and treated ears.
(§1) The vheicle or carrier for the compounds used in the inflammatory and analgesic assays was as follows; For the mouse ear inflammatory assay, the vehicle was acetone. Controls received 25 microliters of acetone. Test compounds were applied to the experimental animals in 25 microliter volumes. For the sperm motility and fertilized sea urchin egg assays, the compounds were dissolved in 10 microliters undenatured ethanol.

[6] = Side effects and mortality, intraperitoneal administration to mice; assay type: in vivo; conditions: for Mortality: on day after administration
Experimental: Doses up to 50 mg/kg administered intraperitoneally to mice have no effect. […] Mortality at 100 mg/kg=2/10 on day after administration, at 200 mg/kg=2/4 also on day after administration.

[7] = test system: Fertilized Sea Urchin Egg; experiment: Fertilized Sea Urchin Egg Inhibition of Cleavage Assay for Anti-proliferation; assay type: cell-based; conditions: doses as low as
Experimental: c. Fertilized Sea Urchin Egg Inhibition of Cleavage Assay for Anti-proliferation
Sea urchins are induced to spawn by injection of 0.5M KCl into the coelomic cavity. Test compound is added to a 1% slurry of eggs within 5 minutes following fertilization and incubated until the completion of the division in control slurry, 90-120 minutes. Inhibition is measured as the present of undivided cells in the slurry at the end of this incubation.
as §1

[8] = test system: Intraperitoneally Administered Phenylquinone; experiment: Phenylquinone Assay for Analgesia (writhing); assay type: in vivo, mice; conditions: for Mean No. Responses ± S.E.M.: phenylquinone 2.0 mg/kg
Experimental: d. Phenylquinone Assay for Analgesia
Test compound is injected subcutaneously into mice. After 30 minutes, phenylquinone is injected intraperitoneally to cause pain as indicated by writhing.
Test compound was administered subcutaneously in sesame oil at concentrations up to 5 mg per ml depending on the test compound dosage protocol. The highest dose was 50 mg per Kg. Control groups received sesame oil subcutaneously.

[9] = Side effects, subcutaneous administration to mice; assay type: in vivo
From the text: The following side effect of pseudopterosin A (Compound I) was observed.

[10] = Toxicity of single intraperitoneal doses; assay type: in vivo, female B6D2F1 mice
Experimental: The toxicity of single intraperitoneal (ip) doses of Compound I in female B6D2F1 mice were evaluated. Doses of up to 150 mg/kg produced no lethality but signs of CNS toxicity were evident at doses greater than or equal to 77 mg/kg.

[11] = 100 mg/kg and above intraperitoneally
[12] = 12.5 mg/kg to 50 mg/kg subcutaneously

## CC(C)=C[C@H]1C[C@H](C)[C@H]2CC[C@H](C)c3c(O[C@@H]4OC[C@@H](O)[C@H](O)[C@H]4O)c(O)c(C)c1c32 [Compound I, pseudopterosin A]
B16 melanoma; 6.48 mg/kg ip
  Increase to Lifespan: -2%
  Median Survival Time: 21.5 days
  Weight Change on Day 9: +1.2 gm
B16 melanoma; 10.8 mg/kg ip
  Increase to Lifespan: -7%
  Median Survival Time: 20.5 days
  Weight Change on Day 9: +1.0 gm
B16 melanoma; 18 mg/kg ip
  Increase to Lifespan: -2%
  Median Survival Time: 21.5 days
  Weight Change on Day 9: +0.9 gm
B16 melanoma; 30 mg/kg ip
  Increase to Lifespan: 11%
  Median Survival Time: 24.5 days
  Weight Change on Day 9: +0.5 gm
B16 melanoma; 50 mg/kg ip
  Increase to Lifespan: -4%
  Median Survival Time: 21 days
  Weight Change on Day 9: -0.4 gm
B16 melanoma; B16 melanoma
  antitumor activity: did not demonstrate significant antitumor activity
[1]
  Ear Weight Mean ± S.E.M.: 13.33 ± 0.38 mg
[2]
  IC50: 42 µM
[3]; 6.25 ug/ear
  % Inhibition (edema): 28.8%
[3]; 12.5 ug/ear
  % Inhibition (edema): 78.3%
[3]; 25 ug/ear
  % Inhibition (edema): 89.5%
[3]; 50 ug/ear
  % Inhibition (edema): 96.0%
[3]; 50% inhibition of inflammation, n = 10 mice/dose
  ED50: 8.3 ug/ear
[4]; 6.25 mg/kg
  % Inhibition (edema): 0%
[4]; 12.5 mg/kg
  % Inhibition (edema): 24.4%
[4]; 25 mg/kg
  % Inhibition (edema): 43.8%
[4]; 50 mg/kg
  % Inhibition (edema): 46.5%
[4]; 100 mg/kg
  % Inhibition (edema): 90.4%
[5]; 50 microgram
  decrease in edema: 69%
[5]; 6.25 ug/ear
  Ear Weight Mean ± S.E.M.: 16.78 ± 0.91 mg
[5]; 12.5 ug/ear
  Ear Weight Mean ± S.E.M.: 14.99 ± 0.6 mg
[5]; 25.0 ug/ear
  Ear Weight Mean ± S.E.M.: 13.18 ± 0.53 mg
[5]; 50.0 ug/ear
  Ear Weight Mean ± S.E.M.: 12.47 ± 0.46 mg
[5]; 100.0 ug/ear
  Ear Weight Mean ± S.E.M.: 11.70 ± 0.37 mg
[5]; summary
  Anti-inflammatory Activity: Active
[6]; [11]
  return to normal activity: ≤ 30 min
  side effects: mild excitation and writhing in some animals
[6]; 100 mg/kg
  Mortality: 2/10
[6]; 200 mg/kg
  Mortality: 2/4
[6]; up to 50 mg/kg intraperitoneally
  side effects: no effect
[7]
  dose that totally inhibits cell division: 7 µM
[8]; 3.1 mg/kg
  Mean No. Responses ± S.E.M.: 8.55 ± 1.38
[8]; 6.3 mg/kg
  Mean No. Responses ± S.E.M.: 5.87 ± 1.24
[8]; 12.5 mg/kg
  Mean No. Responses ± S.E.M.: 5.87 ± 0.77
[8]; 25.0 mg/kg
  Mean No. Responses ± S.E.M.: 1.80 ± 1.31
[8]; 50.0 mg/kg
  Mean No. Responses ± S.E.M.: 0
[8]; mouse, in vivo
  analgesia against chemically induced pain: provides analgesia
[8]; summary
  Analgesic Activity: Active
[9]; [12]
  duration of side effects: last up to one hour
  onset of side effects: within a few minutes of administration
[9]; 12.5 mg/kg to 50 mg/kg subcutaneously, sesame oil
  side effects: central nervous system excitation, brief involuntary muscle contraction of the hind limbs resulting in lateral jumping movements, excessive preening of wound sites, and flushing of the tail and ears
[9]; doses as low as 3 mg/kg
  side effects: slight to moderate central nervous system excitation
[10]; single ip dose
  dose at which signs of CNS toxicity were evident: greater than or equal to 77 mg/kg
[10]; single ip doses >= 77 mg/kg
  Symptoms of CNS toxicity: hypersensitivity to external stimuli and shivering
[10]; single ip doses of up to 150 mg/kg
  lethality: no lethality
